{"source": "the supplement of paper PMC10307832", "assay_in_all_cases": "relative viability (nuclei count vs DMSO), 5 days (fraction); higher = more cells survive", "key": {"[1]": {"compound": "COc1cc(-c2nn([C@H]3CC[C@H](N4CCN(C(C)=O)CC4)CC3)c3ncnc(N)c23)ccc1NC(=O)c1cc2ccccc2n1C + CC(=O)c1c(C)c2cnc(Nc3ccc(N4CCNCC4)cn3)nc2n(C2CCCC2)c1=O [Palbociclib] (partner 0.5 µM)", "in_short": "(§1)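 Lung cancer cell lines were seeded in 1536-well plates and dosed by pin tool the next day, with either a single drug or a fixed anchor-drug dose combined with five library-drug doses (not always all listed) spaced in √10 steps. Five days later, one step fixed the cells and stained their nuclei (final 0.05% Triton X-100, 1% formaldehyde, 1 ug/ml Hoechst), and nuclei were counted on 4× images. Relative viability is the nuclei count in treated wells divided by the count in vehicle wells, and each value is the median of duplicate plates.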"}, "[2]": {"compound": "CO[C@@H]1[C@H](N(C)C(=O)c2ccccc2)C[C@H]2O[C@]1(C)n1c3ccccc3c3c4c(c5c6ccccc6n2c5c31)C(=O)NC4 [Midostaurin] + Cc1nc(Nc2ncc(C(=O)Nc3c(C)cccc3Cl)s2)cc(N2CCN(CCO)CC2)n1 [Dasatinib] (partner 0.075 µM)", "in_short": "as §1"}, "[3]": {"compound": "COc1cc(-c2nn([C@H]3CC[C@H](N4CCN(C(C)=O)CC4)CC3)c3ncnc(N)c23)ccc1NC(=O)c1cc2ccccc2n1C + Cc1nc(NC(=O)N2CCC[C@H]2C(N)=O)sc1-c1ccnc(C(C)(C)C(F)(F)F)c1 [Alpelisib] (partner 2 µM)", "in_short": "as §1"}, "[4]": {"compound": "COc1cc(-c2nn([C@H]3CC[C@H](N4CCN(C(C)=O)CC4)CC3)c3ncnc(N)c23)ccc1NC(=O)c1cc2ccccc2n1C + CS(=O)(=O)CCNCc1ccc(-c2ccc3ncnc(Nc4ccc(OCc5cccc(F)c5)c(Cl)c4)c3c2)o1 [Lapatinib] (partner 2 µM)", "in_short": "as §1"}, "[5]": {"compound": "COc1cc(-c2nn([C@H]3CC[C@H](N4CCN(C(C)=O)CC4)CC3)c3ncnc(N)c23)ccc1NC(=O)c1cc2ccccc2n1C + O=C(c1cc(Cc2n[nH]c(=O)c3ccccc23)ccc1F)N1CCN(C(=O)C2CC2)CC1 [Olaparib] (partner 8 µM)", "in_short": "as §1"}}}
{"cell line": "UMC-11", "values": [{"measurement": "relative viability", "setting": "[1]; first compound 0.0128 µM", "value": 0.349}, {"measurement": "relative viability", "setting": "[1]; first compound 0.04048 µM", "value": 0.341}, {"measurement": "relative viability", "setting": "[1]; first compound 0.128 µM", "value": 0.335}, {"measurement": "relative viability", "setting": "[1]; first compound 1.28 µM", "value": 0.341}, {"measurement": "relative viability", "setting": "[2]; first compound 0.01 µM", "value": 0.362}, {"measurement": "relative viability", "setting": "[2]; first compound 0.03162 µM", "value": 0.403}, {"measurement": "relative viability", "setting": "[2]; first compound 0.1 µM", "value": 0.444}, {"measurement": "relative viability", "setting": "[2]; first compound 0.3162 µM", "value": 0.344}, {"measurement": "relative viability", "setting": "[3]; first compound 0.0128 µM", "value": 0.892}, {"measurement": "relative viability", "setting": "[3]; first compound 0.04048 µM", "value": 0.956}, {"measurement": "relative viability", "setting": "[3]; first compound 0.128 µM", "value": 0.986}, {"measurement": "relative viability", "setting": "[3]; first compound 1.28 µM", "value": 0.746}, {"measurement": "relative viability", "setting": "[4]; first compound 0.0128 µM", "value": 1.04}, {"measurement": "relative viability", "setting": "[4]; first compound 0.04048 µM", "value": 0.978}, {"measurement": "relative viability", "setting": "[4]; first compound 0.128 µM", "value": 0.712}, {"measurement": "relative viability", "setting": "[4]; first compound 1.28 µM", "value": 0.739}, {"measurement": "relative viability", "setting": "[5]; first compound 0.0128 µM", "value": 0.388}, {"measurement": "relative viability", "setting": "[5]; first compound 0.04048 µM", "value": 0.464}, {"measurement": "relative viability", "setting": "[5]; first compound 0.128 µM", "value": 0.342}, {"measurement": "relative viability", "setting": "[5]; first compound 1.28 µM", "value": 0.362}]}
